Reference: patent US9605064B2, “Methods and compositions for treatment of skin disorders” (AbbVie Biotechnology Ltd, priority 2006, dated 2017)

Experiments:
[1] = system: patients with moderate to severe chronic plaque psoriasis; test: Adverse events, CHAMPION 16-week Phase III trial; details: 16-week study
Source text: (§2) The study was a multi-center, 16-week, randomized controlled Phase III trial. The main inclusion criteria included: • Clinical diagnosis of psoriasis for ≧1 year • Affected body surface area (BSA)≧10% • Psoriasis Area and Severity Index (PASI)≧10 The main exclusion criteria was previous use of MTX or systemic anti-TNF therapy.

[2] = system: patients with moderate to severe chronic plaque psoriasis; test: PGA, CHAMPION 16-week Phase III trial; type: in vivo, human; details: ITT, missing PGA = not achieving
Procedure: (§1) Analytical methods included the following: • Intention-to-treat analyses were performed for all randomized patients • Missing data were analyzed using non-responder imputation (NRI) • PASI 75 at Week 16 (primary endpoint) was analyzed using adjusted Cochran-Mantel-Haenszel test.

[3] = system: patients with moderate to severe chronic plaque psoriasis; details: human, in vivo, 16 weeks
Source text: as §2

[4] = system: patients with moderate to severe chronic plaque psoriasis; test: PASI response, CHAMPION 16-week Phase III trial vs methotrexate and placebo; type: in vivo, human; details: ITT; for PASI 75 Response Rates, % Patients / PASI 90 Response Rates, % Patients: missing PASI = non-responder
Procedure: as §1

[5] = system: patients with moderate to severe chronic plaque psoriasis; test: PASI response, open-label extension of CHAMPION (methotrexate to adalimumab transition); type: in vivo, human; details: prior to starting adalimumab, after 16 weeks of methotrexate in CHAMPION; 95 patients
[6] = MTX N = 110, Adalimumab N = 107

CN(Cc1cnc2nc(N)nc(N)c2n1)c1ccc(C(=O)N[C@@H](CCC(=O)O)C(=O)O)cc1 [methotrexate, reference compound]
Any AE [1, 6]: 89 (81) n (%)
Any AE leading to discontinuation [1, 6]: 6 (6) n (%)
Any SAE [1, 6]: 1 (1) n (%)
Any infectious AE [1, 6]: 46 (42) n (%)
Any infectious SAE [1, 6]: 0 (0) n (%)
Arthralgia ([1]; common AE in ≧5% of patients): 5 (5) n (%)
Gamma-Glutamyltransferase Increased ([1]; common AE in ≧5% of patients): 0 (0) n (%)
Headache ([1]; common AE in ≧5% of patients): 12 (11) n (%)
Nasopharyngitis ([1]; common AE in ≧5% of patients): 26 (24) n (%)
Nausea ([1]; common AE in ≧5% of patients): 8 (7) n (%)
Pruritus ([1]; common AE in ≧5% of patients): 2 (2) n (%)
Rhinitis ([1]; common AE in ≧5% of patients): 4 (4) n (%)
Rhinorrhea ([1]; common AE in ≧5% of patients): 0 (0) n (%)
PGA “Clear” or “Minimal” Responses, % Patients ([2]; Week 4): 1%
PGA “Clear” or “Minimal” Responses, % Patients ([2]; Week 8): 3%
PGA “Clear” or “Minimal” Responses, % Patients ([2]; Week 12): 9%
PGA “Clear” or “Minimal” Responses, % Patients ([2]; Week 16): 14%
Viral Infection [3]: 6 (6) n (%)
PASI 75 Response Rates, % Patients ([4]; Week 4): 3%
PASI 90 Response Rates, % Patients ([4]; Week 4): 1%
PASI 75 Response Rates, % Patients ([4]; Week 8): 9%
PASI 90 Response Rates, % Patients ([4]; Week 8): 3%
PASI 75 Response Rates, % Patients ([4]; Week 12): 25%
PASI 90 Response Rates, % Patients ([4]; Week 12): 9%
PASI 75 ([4]; Week 16, NRI): 36%
PASI 75 Response Rates, % Patients ([4]; Week 16): 36%
PASI 90 Response Rates, % Patients ([4]; Week 16): 14%
PASI 75 Response Rates, % Patients ([4]; Week 16, listed as MTX): 35.5%
PASI 90 Response Rates, % Patients ([4]; Week 16, listed as MTX): 13.6%
PASI 50 response rate ([4]; Week 16 of CHAMPION, NRI): 61.8%
PASI 100 response rate ([4]; Week 16 of CHAMPION, NRI): 7.3%
PASI 75 response rate [5]: 28%
PASI 90 response rate [5]: 14%
PASI 100 response rate [5]: 5%
